These results are taken from ChEMBL document CHEMBL1154170, “2-Oxoglutarate analogue inhibitors of prolyl hydroxylase domain 2” (Bioorg Med Chem Lett, 2009).

For the experiment, the target named is Egl nine homolog 1 (Homo sapiens, UniProt Q9GZT9). In words: Inhibition of human PHD2 catalytic domain (181-426) by FRET assay.
Chain of Egl nine homolog 1 (Q9GZT9 whole entry, the tested form may be a part): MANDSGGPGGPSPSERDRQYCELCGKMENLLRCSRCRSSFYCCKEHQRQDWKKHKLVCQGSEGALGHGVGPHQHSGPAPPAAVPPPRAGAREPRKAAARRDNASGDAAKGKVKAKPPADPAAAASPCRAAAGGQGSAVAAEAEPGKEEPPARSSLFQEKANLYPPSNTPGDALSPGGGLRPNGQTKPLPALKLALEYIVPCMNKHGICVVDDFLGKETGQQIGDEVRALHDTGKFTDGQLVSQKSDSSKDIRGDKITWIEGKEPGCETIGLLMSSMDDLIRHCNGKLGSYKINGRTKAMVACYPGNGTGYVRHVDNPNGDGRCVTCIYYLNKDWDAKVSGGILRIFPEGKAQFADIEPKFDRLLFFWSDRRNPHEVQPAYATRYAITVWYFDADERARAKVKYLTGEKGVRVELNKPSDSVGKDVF
Molecule `CCOC(=O)C(=O)NCC(=O)O` had a half-inhibitory concentration (IC50) of 78 µM.

Molecule `O=C(O)CNC(=O)C(=O)C(=O)c1ccccc1` had a half-maximal inhibitory concentration (IC50) of 538 µM.

In turn, `O=C(O)CCC(=O)NO` showed an IC50 of 94 µM.

`COC(=O)CNC(=O)C(=O)O` showed a half-inhibitory concentration (IC50) of more than 1000 µM.

For the molecule `O=C(O)CNC(=O)C(=O)NCc1ccccc1`, the IC50 is more than 1000 µM.

For the molecule `O=C(O)CNC(=O)NO`, the IC50 was more than 1000 µM.

Take `CCNC(=O)C(=O)NCC(=O)O`: the IC50 is more than 1000 µM.

Molecule `CC(=O)CC(=O)CCC(=O)O` [SUCCINYLACETONE] returned a half-inhibitory concentration (IC50) of 18 µM.

`O=C(O)CN1CCNC(=O)C1=O` registered an IC50 of more than 1000 µM.

`CCNC(=O)C(=O)CCC(=O)O`: the half-inhibitory concentration (IC50) is more than 1000 µM.

In turn, `CC(=O)CC(=O)NCC(=O)O` had a 50% inhibitory concentration (IC50) of more than 1000 µM.

As to `O=C(O)CNC(=O)CC(=O)c1ccccc1`, the half-maximal inhibitory concentration (IC50) is more than 1000 µM.

With `COC(=O)C(=O)NCC(=O)O`, 95 µM corresponded to half-maximal inhibition (IC50).

Consider `CCOC(=O)CC(=O)NCC(=O)O`, for which the IC50 was more than 1000 µM.

As to `O=C(O)CNC(=O)CC(=O)O`, half-maximal inhibition (IC50) required 398 µM.
